Laboratory results taken from ChEMBL document CHEMBL5365510, “Discovery of Novel, Thienopyridine-Based Tyrosine Kinase Inhibitors Targeting Tumorigenic RON Splice Variants” (ACS Med Chem Lett, 2023).
Active and inactive are the calls of the source. The calls are words filed in the database; no cut-off is given here.

Tests used:
KM12C [1] = test: Antiproliferative activity against human KM12-C cells harbouring wild-type KRAS and RON delta 160 assessed as cell growth inhibition measured after 72 hrs by MTS assay; type: functional
SW-620 = test: Antiproliferative activity against human SW620 cells harbouring KRAS G12 V mutant and RON delta 155 assessed as cell growth inhibition measured after 72 hrs by MTS assay; type: functional
[2] = biological target: T1, Macrophage-stimulating protein receptor (Homo sapiens, UniProt Q04912); test: Inhibition of N-terminal GST-tagged human recombinant RON (979 to 1400(end) residues) expressed in Sf21 cells incubated for 20 mins followed by ATP addition measured after 60 mins by TR-FRET based LanthaScreen kinase assay
HT-29 [3] = test: Antiproliferative activity against human HT-29 cells harbouring wild-type KRAS and RON delta 160 assessed as cell growth inhibition measured after 72 hrs by MTS assay; type: functional
[4] = biological target: Hepatocyte growth factor receptor (Homo sapiens, UniProt P08581); test: Inhibition of c-Met (unknown origin)
Chain of Hepatocyte growth factor receptor (P08581 whole entry): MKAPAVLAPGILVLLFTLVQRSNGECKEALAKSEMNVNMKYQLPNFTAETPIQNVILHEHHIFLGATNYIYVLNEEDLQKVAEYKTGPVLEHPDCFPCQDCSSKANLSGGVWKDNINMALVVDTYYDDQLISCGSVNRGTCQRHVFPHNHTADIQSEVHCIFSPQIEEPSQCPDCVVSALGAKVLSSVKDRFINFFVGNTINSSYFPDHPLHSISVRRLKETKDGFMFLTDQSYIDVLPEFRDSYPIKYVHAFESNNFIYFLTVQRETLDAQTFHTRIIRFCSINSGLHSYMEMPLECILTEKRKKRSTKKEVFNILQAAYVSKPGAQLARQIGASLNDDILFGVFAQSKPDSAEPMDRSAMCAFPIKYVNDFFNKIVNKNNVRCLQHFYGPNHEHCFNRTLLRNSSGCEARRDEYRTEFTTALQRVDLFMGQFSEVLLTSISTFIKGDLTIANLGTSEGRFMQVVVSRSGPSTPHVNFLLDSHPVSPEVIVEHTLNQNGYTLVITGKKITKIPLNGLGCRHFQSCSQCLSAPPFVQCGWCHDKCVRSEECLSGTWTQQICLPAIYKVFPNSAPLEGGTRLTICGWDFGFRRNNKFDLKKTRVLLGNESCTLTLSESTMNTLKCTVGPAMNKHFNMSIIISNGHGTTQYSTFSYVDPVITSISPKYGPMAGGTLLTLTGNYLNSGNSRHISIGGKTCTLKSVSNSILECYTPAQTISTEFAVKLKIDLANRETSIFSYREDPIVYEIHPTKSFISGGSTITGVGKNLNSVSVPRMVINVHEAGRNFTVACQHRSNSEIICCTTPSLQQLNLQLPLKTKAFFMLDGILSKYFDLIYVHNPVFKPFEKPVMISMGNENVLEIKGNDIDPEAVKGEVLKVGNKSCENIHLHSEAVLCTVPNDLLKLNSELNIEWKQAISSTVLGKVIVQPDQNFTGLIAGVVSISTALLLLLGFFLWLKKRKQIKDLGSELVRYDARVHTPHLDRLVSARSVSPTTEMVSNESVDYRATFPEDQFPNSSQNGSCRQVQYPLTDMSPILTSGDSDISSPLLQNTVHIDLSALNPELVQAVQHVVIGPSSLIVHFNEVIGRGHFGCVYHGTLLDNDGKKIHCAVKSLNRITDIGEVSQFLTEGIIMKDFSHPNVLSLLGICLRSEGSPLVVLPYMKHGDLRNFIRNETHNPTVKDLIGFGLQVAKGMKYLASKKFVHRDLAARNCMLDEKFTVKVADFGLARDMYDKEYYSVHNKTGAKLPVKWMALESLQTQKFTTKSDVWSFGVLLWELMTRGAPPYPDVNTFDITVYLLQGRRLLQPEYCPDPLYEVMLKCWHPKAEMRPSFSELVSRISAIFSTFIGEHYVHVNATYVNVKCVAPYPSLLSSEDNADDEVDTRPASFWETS

[5] = biological target: T1, Macrophage-stimulating protein receptor; test: Inhibition of RON (unknown origin)
[6] = Half life in Sprague-Dawley rat at 5 mg/kg, po measured after 24 hrs by LC/MS/MS analysis; type: ADME, organism-based; settings: in vivo
[7] = Half life in Sprague-Dawley rat at 1 mg/kg, iv measured after 24 hrs by LC/MS/MS analysis; type: ADME, organism-based; settings: in vivo
[8] = Clearance in Sprague-Dawley rat at 1 mg/kg, iv measured after 24 hrs by LC/MS/MS analysis; type: ADME, organism-based; settings: Sprague-Dawley, in vivo
[9] = Metabolic stability in human liver microsomes assessed as parent compound remaining after 30 mins in presence of NADPH by LC/MS/MS analysis; type: ADME, Microsome; settings: read-out: Stability
[10] = AUC(0 to infinity) in Sprague-Dawley rat at 1 mg/kg, iv measured after 24 hrs by LC/MS/MS analysis; type: ADME, organism-based; parameters: time 24 hrs, dose 1 mg/kg, route iv; settings: Sprague-Dawley, in vivo
[11] = AUC(0 to infinity) in Sprague-Dawley rat at 5 mg/kg, po measured after 24 hrs by LC/MS/MS analysis; type: ADME, organism-based; parameters: dose 5 mg/kg, time 24 hrs, route po; settings: Sprague-Dawley, in vivo
[12] = Cmax in Sprague-Dawley rat at 5 mg/kg, po measured after 24 hrs by LC/MS/MS analysis; type: ADME, organism-based; parameters: dose 5 mg/kg, time 24 hrs, route po; settings: in vivo
[13] = Oral bioavailability in Sprague-Dawley rat at 5 mg/kg measured after 24 hrs by LC/MS/MS analysis; type: ADME, organism-based; settings: Sprague-Dawley, in vivo
[14] = Tmax in Sprague-Dawley rat at 5 mg/kg, po measured after 24 hrs by LC/MS/MS analysis; type: ADME, organism-based; settings: in vivo
[15] = Volume of distribution at steady state in Sprague-Dawley rat at 1 mg/kg, iv measured after 24 hrs by LC/MS/MS analysis; type: ADME, organism-based; settings: in vivo, read-out: Vdss
HT-29 [16] = test: Antiproliferative activity against human HT-29 cells harbouring wild-type KRAS and RON delta 160 assessed as cell death rate at 5 uM measured after 48 hrs by trypan blue exclusion assay relative to control; type: functional
KM12C [17] = test: Antiproliferative activity against human KM12-C cells harbouring wild-type KRAS and RON delta 160 assessed as cell death rate at 5 uM measured after 48 hrs by trypan blue exclusion assay relative to control; type: functional
MIA PaCa-2 = test: Antiproliferative activity against human MIA PaCa-2 cells harbouring KRAS G12C mutant and RON delta 160 assessed as cell growth inhibition measured after 72 hrs by MTS assay; type: functional
SW480 = test: Antiproliferative activity against human SW480 cells harbouring KRAS G12V mutant and RON delta 155 assessed as cell growth inhibition measured after 72 hrs by MTS assay; type: functional
[18] = Antitumor activity against patient derived Colorectal cancer cell harbouring wild-type KRAS and RON delta 160 xenografted in BALB/c mouse assessed as tumor growth inhibition at 10 mg/kg, po qd measured after 28 days; type: functional; settings: Homo sapiens, 672 h, time 28 day, read-out: TGI
PANC-03-27 = test: Antiproliferative activity against human Panc 03.27 cells harbouring KRAS G12V mutant and RON delta 155 assessed as cell growth inhibition measured after 72 hrs by MTS assay; type: functional
ASPC1 = test: Antiproliferative activity against human ASPC1 cells harbouring KRAS G12D mutant and RON delta 165 assessed as cell growth inhibition measured after 72 hrs by MTS assay; type: functional
PANC-1 = test: Antiproliferative activity against human PANC-1 cells harbouring KRAS G12D mutant and RON delta 155 assessed as cell growth inhibition measured after 72 hrs by MTS assay; type: functional
CAPAN-1 = test: Antiproliferative activity against human CAPAN-1 cells harbouring KRAS G12V mutant and RON delta 155 assessed as cell growth inhibition measured after 72 hrs by MTS assay; type: functional

GI50 (SW-620) | IC50 [2] | GI50 (HT-29 [3]) | Structure (SMILES) | GI50 (KM12C [1]) | further results
0.62 µM | 0.00086 µM | 4.88 µM | CCOc1ccn(-c2ccc(F)cc2)c(=O)c1C(=O)Nc1ccc(Oc2ccnc3cc(-c4ccc(CN5CCC(F)(F)C5)cn4)sc23)c(F)c1 | 0.009 µM | 
0.56 µM | 0.00182 µM | 2.44 µM | CCOc1ccn(-c2ccc(F)cc2)c(=O)c1C(=O)Nc1ccc(Oc2ccnc3cc(-c4ccc(CN5CCC(F)CC5)cn4)sc23)c(F)c1 | 0.017 µM | 
0.54 µM | 0.00082 µM | 0.65 µM | CCOc1ccn(-c2ccc(F)cc2)c(=O)c1C(=O)Nc1ccc(Oc2ccnc3cc(-c4ccc(CN5CCC(F)C5)cn4)sc23)c(F)c1 (configuration not stated) | 0.016 µM | 
1.03 µM | 0.00016 µM | 1.64 µM | CCOc1ccn(-c2ccc(F)cc2)c(=O)c1C(=O)Nc1ccc(Oc2ccnc3cc(-c4ccc(CN5CC(OC)C5)cn4)sc23)c(F)c1 | 0.027 µM | 
0.36 µM | 0.00069 µM | 7.71 µM | CCOc1ccn(-c2ccc(F)cc2)c(=O)c1C(=O)Nc1ccc(Oc2ccnc3cc(-c4ccc(CN5CCC(OC)C5)cn4)sc23)c(F)c1 (configuration not stated) | 0.023 µM | 
0.44 µM |  | 0.59 µM | CCOc1ccn(-c2ccc(F)cc2)c(=O)c1C(=O)Nc1ccc(Oc2ccnc3cc(-c4ccc(CNCCOC)cn4)sc23)c(F)c1 | 3.4 µM | 
0.78 µM | 0.00048 µM | 0.97 µM | CCOc1ccn(-c2ccc(F)cc2)c(=O)c1C(=O)Nc1ccc(Oc2ccnc3cc(-c4ccc(CN5CC(F)(F)C5)cn4)sc23)c(F)c1 | 0.024 µM | 
0.2 µM | 0.00063 µM | 1.25 µM | CCOc1ccn(-c2ccc(F)cc2)c(=O)c1C(=O)Nc1ccc(Oc2ccnc3cc(-c4ccc(CN5CC(F)C5)cn4)sc23)c(F)c1 | 0.016 µM | 
7.37 µM | 0.006 µM | 0.66 µM | CCOc1ccn(-c2ccc(F)cc2)c(=O)c1C(=O)Nc1ccc(Oc2ccnc3cc(-c4ccc(CN5CCC(F)(F)CC5)cn4)sc23)c(F)c1 | 0.027 µM | 
0.83 µM | 0.00283 µM | 0.65 µM | CCOc1ccn(-c2ccc(F)cc2)c(=O)c1C(=O)Nc1ccc(Oc2ccnc3cc(-c4ccc(CCN5CCOCC5)cn4)sc23)c(F)c1 | 0.026 µM | 
0.7 µM | 0.00073 µM | 1.77 µM | CCOc1ccn(-c2ccc(F)cc2)c(=O)c1C(=O)Nc1ccc(Oc2ccnc3cc(-c4ccc(CN5CCC(OC)CC5)cn4)sc23)c(F)c1 | 0.019 µM | 
0.68 µM |  |  | CCOc1ccn(-c2ccc(F)cc2)c(=O)c1C(=O)Nc1ccc(Oc2ccnc3cc(-c4ccc(CN5CCN(C)CC5)cn4)sc23)c(F)c1 | 0.009 µM | 

Continued, compound first:

Structure (SMILES) | GI50 (SW-620) | IC50 [2] | GI50 (HT-29 [3]) | GI50 (KM12C [1]) | further results
CCOc1ccn(-c2ccc(F)cc2)c(=O)c1C(=O)Nc1ccc(Oc2ccnc3cc(-c4ccc(OCCN5CCOCC5)cn4)sc23)c(F)c1 | 1.56 µM | 0.00239 µM | 2.77 µM | 0.038 µM | 
CCOc1ccn(-c2ccc(F)cc2)c(=O)c1C(=O)Nc1ccc(Oc2ccnc3cc(-c4ccccn4)sc23)c(F)c1 | 1.55 µM | 0.00048 µM | 3.14 µM | 0.022 µM | 
CCOc1ccn(-c2ccc(C(F)(F)F)cc2)c(=O)c1C(=O)Nc1ccc(Oc2ccnc3cc(-c4ccc(CN5CCOCC5)cn4)sc23)c(F)c1 |  | 0.0173 µM |  |  | 
CN1CCC(Oc2ccn(-c3ccc(F)cc3)c(=O)c2C(=O)Nc2ccc(Oc3ccnc4cc(-c5ccc(CN6CCOCC6)cn5)sc34)c(F)c2)C1 (configuration not stated) | 3.66 µM | 0.00547 µM | 5.61 µM | 0.055 µM | 
COc1ccc2c(Oc3ccc(NC(=O)c4c(C)n(CC(C)(C)O)n(-c5ccccc5)c4=O)cc3F)ccnc2c1 |  |  |  |  | IC50 [4]: 0.009 µM
CCOc1ccn(-c2ccc(F)cc2)c(=O)c1C(=O)Nc1ccc(Oc2ccnc3cc(-c4ccc(CN5CCOCC5)cn4)sc23)cc1Cl | 2.84 µM |  | 1.56 µM | 0.006 µM | 
Cc1ccc(C(=O)Nc2ccc(Oc3cc4cnn(C)c4cc3-c3cn[nH]c3)c(F)c2)c(=O)n1-c1ccc(F)cc1 [MERESTINIB] |  |  |  |  | IC50 [5]: 0.012 µM
CCOc1ccn(-c2ccc(Cl)cc2)c(=O)c1C(=O)Nc1ccc(Oc2ccnc3cc(-c4ccc(CN5CCOCC5)cn4)sc23)c(F)c1 | 0.58 µM |  | 0.6 µM | 0.025 µM | 
CCOc1ccn(-c2ccc(F)cc2)c(=O)c1C(=O)Nc1ccc(Oc2ccnc3cc(-c4cn(C)cn4)sc23)c(F)c1 | 0.81 µM | 0.00041 µM | 0.57 µM | 0.027 µM | half-life [6]: 3.79 h; half-life [7]: 3.03 h; clearance [8]: 3.83 mL/min/kg; IC50 [4]: 0.004 µM; remaining at 0.5 h [9]: 49%; AUC(0-inf) [10]: 4370 ng·h/mL; AUC(0-inf) [11]: 6670 ng·h/mL; Cmax [12]: 810 ng/mL; bioavailability [13]: 30.5%; Tmax [14]: 2.67 h; IC50 [5]: 0.009 µM; Vd [15]: 0.64 L/kg
CCCCOc1ccn(-c2ccc(F)cc2)c(=O)c1C(=O)Nc1ccc(Oc2ccnc3cc(-c4ccc(CN5CCOCC5)cn4)sc23)c(F)c1 | 1 µM | 0.00098 µM | 0.84 µM | 0.015 µM | 
O=C(Nc1ccc(Oc2ccnc3cc(-c4ccc(CN5CCOCC5)cn4)sc23)c(F)c1)c1c(OCCC2CC2)ccn(-c2ccc(F)cc2)c1=O | 2.37 µM | 0.00072 µM | 0.86 µM | 0.011 µM | 
CCOc1ccn(-c2cccc(F)c2)c(=O)c1C(=O)Nc1ccc(Oc2ccnc3cc(-c4ccc(CN5CCOCC5)cn4)sc23)c(F)c1 | 0.64 µM | 0.00074 µM | 0.395 µM | 0.042 µM | Activity (HT-29 [16]): Active; Activity (KM12C [17]): Active
CCOc1ccn(-c2ccc(F)cc2)c(=O)c1C(=O)Nc1ccc(Oc2ccnc3cc(-c4ccc(CN5CCOCC5)cn4)sc23)c(Cl)c1 | 1.09 µM |  | 0.66 µM | 0.015 µM | 
CCOc1ccn(-c2ccccc2)c(=O)c1C(=O)Nc1ccc(Oc2ccnc3cc(-c4ccc(CN5CCOCC5)cn4)sc23)c(F)c1 | 0.26 µM |  |  | 0.003 µM | Activity (HT-29 [16]): Active; Activity (KM12C [17]): Active
C[C@@H](Oc1cc(-c2cnn(C3CCNCC3)c2)cnc1N)c1c(Cl)ccc(F)c1Cl [CRIZOTINIB] |  |  | 4 µM |  | GI50 (MIA PaCa-2): 1.46 µM; GI50 (SW480): > 10 µM; inhibition in vivo at 10 mg/kg [18]: 27.5%; GI50 (PANC-03-27): 6.35 µM; GI50 (ASPC1): 2.38 µM; GI50 (PANC-1): 2.56 µM; GI50 (CAPAN-1): 5.12 µM
CN(C)CCOc1ccn(-c2ccc(F)cc2)c(=O)c1C(=O)Nc1ccc(Oc2ccnc3cc(-c4ccc(CN5CCOCC5)cn4)sc23)c(F)c1 | 1.92 µM | 0.00215 µM | 0.97 µM | 0.035 µM | 
CCOc1ccn(-c2ccc(F)cc2)c(=O)c1C(=O)Nc1cc(F)c(Oc2ccnc3cc(-c4ccc(CN5CCOCC5)cn4)sc23)c(F)c1 | 1.35 µM | 0.00225 µM | 0.642 µM | 0.04 µM | 
CN1CCC(COc2ccn(-c3ccc(F)cc3)c(=O)c2C(=O)Nc2ccc(Oc3ccnc4cc(-c5ccc(CN6CCOCC6)cn5)sc34)c(F)c2)C1 (configuration not stated) |  | 0.0756 µM |  |  | 
CC(C)COc1ccn(-c2ccc(F)cc2)c(=O)c1C(=O)Nc1ccc(Oc2ccnc3cc(-c4ccc(CN5CCOCC5)cn4)sc23)c(F)c1 | 0.38 µM | 0.00062 µM | 0.16 µM | 0.003 µM | Activity (HT-29 [16]): Active; Activity (KM12C [17]): Active
CCCOc1ccn(-c2ccc(F)cc2)c(=O)c1C(=O)Nc1ccc(Oc2ccnc3cc(-c4ccc(CN5CCOCC5)cn4)sc23)c(F)c1 | 0.59 µM | 0.00049 µM | 0.5 µM | 0.01 µM | Activity (HT-29 [16]): Active; Activity (KM12C [17]): Active
